Read-outs that look alike come from different tables or passages of the source.
How the values were obtained:
[1] = molecular target: proton pump (H+/K+-ATPase) (Sus scrofa (Pig), UniProt P19156); assay: Inhibitory activity on proton pump (H+/K+-ATPase) activity; format: biochemical; conditions: porcine gastric mucosal microsomes, 5 mM KCl, pH 6.4
Procedure: The compounds indicated in the above examples were tested for their inhibitory activity on proton pump (H+/K+-ATPase) activity as follows by applying the method disclosed in the literature. According to the methods of Nobuyuki Takahashi and Yukinori Take [J Pharmacol Exp Ther. 2018 February; 364(2):275-286], the gastric mucosal microsome fraction was isolated from the porcine stomach. The stomach isolated from the pig was washed first with tap water, only the fundus was cut, and then washed (a second time) with cold PBS. The gastric mucosa was separated by scraping, homogenized with 250 mM sucrose solution, and centrifuged at 20,000 g at 4° C. for 30 minutes. Only the supernatant was centrifuged at 115,000 g at 4° C. for 30 minutes, and the precipitate was suspended in 250 mM sucrose solution, added to cover with 7% Ficoll solution, and centrifuged at 135,000 g at 4° C. for 60 minutes. The microsome fraction formed at the interface was recovered and suspended in 250 mM sucrose solution, and centrifuged at 135,000 g, 4° C. for 60 minutes, and the precipitate was dissolved in 0.9% NaCl. The isolated gastric mucosal microsome fraction was quantified by using the Bicinchoninic Acid (BCA) kit (Thermo).
60 μl of enzyme reaction solution (a test compound at a given concentration, […] of gastric mucosal microsomes, 3 mM of MgSO4, 5 mM of KCl, 40 mM of Tris-HCl pH 6.4, and 0.5 mM of adenosine triphosphate) was added to each well of a 96-well plate and reacted at 37° C. for 60 minutes, and 30 μl of 10% SIDS was added to stop the enzyme reaction. 200 μl of detection solution (in which 10% L-ascorbic acid with pH 5.0 was mixed with 35 mM of ammonium molybdate tetrahydrate/15 mM of zinc acetate with pH 5.0 at the ratio of 4:1) was added and reacted at 37° C. for 30 minutes, and the absorbance value was measured at 750 nm by using a microplate reader (MULTISKAN GO, Thermo). The inhibition rate of proton pump activity was expressed as I050, which is 50% inhibition of enzyme activity, by using GraphPad Prism 5. In Table 1 below, an I050 value of 100 nM or less is indicated by +++, an I050 value of 101 to 200 nM is indicated by ++, and an I050 value of above 200 nM is indicated by +.

[2] = test system: pH of gastric juice; assay: Pharmacodynamic profile (pH of gastric juice) in beagles after histamine; format: in vivo, beagle dogs; conditions: beagle
Procedure: A total of 18 male beagle dogs (Marshall Beagle, Beijing) with an average weight of 9 to 11 kg were obtained, acclimatized, and distributed into a total of 6 groups, 3 dogs per test group. During the entire experiment, all beagle dogs were supplied with standardized solid food and water. The breeding room was kept under controlled and monitored conditions, while maintaining a temperature of 18° C. to 26° C., a humidity of 40% to 70%, and a light-dark cycle of 12 hours-12 hours.
The test group consisted of beagle dogs that were orally administered the vehicle as the vehicle group, beagle dogs that were orally administered control drug 1 (vonoprazan) as the comparison group, and administration group was beagle dogs orally administered with Example 7.
To measure the neutralizing power of gastric acid for drug efficacy evaluation, each dose of the compound was administered to each group. Then, histamine dihydrochloride at 0.03 mg/kg was administered subcutaneously 1, 3, 6, 24, and 48 hours after compound administration. The pH of the gastric juice was measured 0, 2.5, 4.5, 7.5, 25.5, and 49.5 hours after compound administration.

[3] = Storage stability (related substance identification test); format: physicochemical; conditions: for storage stability: stored at −2 to 8° C., in % (unit assumed)
Description: An attempt was made to evaluate the storage stability over time of the compound of Example 7 of the present invention and the compound of Comparative Example 1 (which is the deuterium-unsubstituted form of the compound of Example 7) depending on the presence of deuterium substitution.

Sequence of proton pump (H+/K+-ATPase) (P19156 2-1034): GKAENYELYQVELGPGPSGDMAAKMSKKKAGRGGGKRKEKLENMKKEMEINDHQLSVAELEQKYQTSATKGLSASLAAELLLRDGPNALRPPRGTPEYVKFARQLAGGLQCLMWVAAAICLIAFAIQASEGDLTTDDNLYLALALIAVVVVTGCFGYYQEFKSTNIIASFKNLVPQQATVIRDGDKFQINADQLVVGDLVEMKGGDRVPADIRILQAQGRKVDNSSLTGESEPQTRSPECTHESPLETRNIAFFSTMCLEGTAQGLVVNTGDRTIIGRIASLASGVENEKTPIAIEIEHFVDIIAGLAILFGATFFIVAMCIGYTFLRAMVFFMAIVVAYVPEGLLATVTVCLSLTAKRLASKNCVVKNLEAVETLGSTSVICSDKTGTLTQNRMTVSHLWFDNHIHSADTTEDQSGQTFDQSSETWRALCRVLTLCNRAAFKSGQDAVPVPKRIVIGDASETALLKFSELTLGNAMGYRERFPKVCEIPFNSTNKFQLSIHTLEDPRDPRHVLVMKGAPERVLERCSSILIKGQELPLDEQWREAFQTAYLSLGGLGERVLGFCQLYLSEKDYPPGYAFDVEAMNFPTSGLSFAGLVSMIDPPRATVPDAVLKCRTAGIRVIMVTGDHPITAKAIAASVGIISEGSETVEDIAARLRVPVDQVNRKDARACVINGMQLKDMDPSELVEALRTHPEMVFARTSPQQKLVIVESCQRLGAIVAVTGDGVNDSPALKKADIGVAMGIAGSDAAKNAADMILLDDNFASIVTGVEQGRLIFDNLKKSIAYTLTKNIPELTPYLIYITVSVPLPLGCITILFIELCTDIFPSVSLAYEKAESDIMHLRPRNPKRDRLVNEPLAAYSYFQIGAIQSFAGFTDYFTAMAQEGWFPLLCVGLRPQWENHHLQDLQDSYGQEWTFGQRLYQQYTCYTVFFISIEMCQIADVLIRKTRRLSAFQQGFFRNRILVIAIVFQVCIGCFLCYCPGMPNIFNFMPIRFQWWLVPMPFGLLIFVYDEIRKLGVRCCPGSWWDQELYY
Sequence of proton pump (H+/K+-ATPase) (P18434 whole entry partner): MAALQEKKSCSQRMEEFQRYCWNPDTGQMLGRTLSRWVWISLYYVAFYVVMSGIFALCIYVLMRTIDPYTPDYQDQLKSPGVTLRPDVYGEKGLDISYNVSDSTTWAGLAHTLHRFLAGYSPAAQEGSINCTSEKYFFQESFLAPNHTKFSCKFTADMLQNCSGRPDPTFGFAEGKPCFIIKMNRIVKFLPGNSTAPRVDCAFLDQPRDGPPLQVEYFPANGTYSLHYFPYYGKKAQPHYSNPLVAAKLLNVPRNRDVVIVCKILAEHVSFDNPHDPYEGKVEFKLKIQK

SMILES: [2H]C([2H])([2H])NCc1cc(-c2ccccc2F)n(S(=O)(=O)c2ccc(F)cc2)c1 [Example 7, N-((5-(2-fluorophenyl)-1-((4-fluorophenyl)sulfonyl)-1H-pyrrol-3-yl)methyl)methan-d3-amine]
- IC50 ([1]; read-out: Proton pump inhibitory activity (IC50)): 25 nM
- IC50 ([1]; read-out: Proton pump inhibitory activity (IC50, nM), class symbol): ≤ 100 nM
- Average pH of gastric juice ([2]; oral 0.1 mg/kg, 0 h): 6.8
- Average pH of gastric juice ([2]; oral 0.1 mg/kg, 2.5 h): 3.3
- Average pH of gastric juice ([2]; oral 0.1 mg/kg, 4.5 h): 6.5
- Average pH of gastric juice ([2]; oral 0.1 mg/kg, 7.5 h): 6.0
- Average pH of gastric juice ([2]; oral 0.1 mg/kg, 25.5 h): 2.7
- Average pH of gastric juice ([2]; oral 0.1 mg/kg, 49.5 h): 2.4
- Average pH of gastric juice ([2]; oral 0.3 mg/kg, 0 h): 7.2
- Average pH of gastric juice ([2]; oral 0.3 mg/kg, 2.5 h): 6.7
- Average pH of gastric juice ([2]; oral 0.3 mg/kg, 4.5 h): 7.0
- Average pH of gastric juice ([2]; oral 0.3 mg/kg, 7.5 h): 6.5
- Average pH of gastric juice ([2]; oral 0.3 mg/kg, 25.5 h): 2.3
- Average pH of gastric juice ([2]; oral 0.3 mg/kg, 49.5 h): 2.8
- Average pH of gastric juice ([2]; oral 1 mg/kg, 0 h): 5.7
- Average pH of gastric juice ([2]; oral 1 mg/kg, 2.5 h): 7.2
- Average pH of gastric juice ([2]; oral 1 mg/kg, 4.5 h): 6.7
- Average pH of gastric juice ([2]; oral 1 mg/kg, 7.5 h): 6.2
- Average pH of gastric juice ([2]; oral 1 mg/kg, 25.5 h): 3.0
- Average pH of gastric juice ([2]; oral 1 mg/kg, 49.5 h): 2.3
- Average pH of gastric juice ([2]; oral 3 mg/kg, 0 h): 6.0
- Average pH of gastric juice ([2]; oral 3 mg/kg, 2.5 h): 7.3
- Average pH of gastric juice ([2]; oral 3 mg/kg, 4.5 h): 7.0
- Average pH of gastric juice ([2]; oral 3 mg/kg, 7.5 h): 6.3
- Average pH of gastric juice ([2]; oral 3 mg/kg, 25.5 h): 6.2
- Average pH of gastric juice ([2]; oral 3 mg/kg, 49.5 h): 3.0
- storage stability, Results ([3]; stored at −2 to 8° C. for 3 months): Stable
- storage stability ([3]; 1st week): 98.33
- storage stability ([3]; 2nd week): 98.11
- storage stability ([3]; 3 months): 98.9
- storage stability ([3]; 3rd week): 98.11
- storage stability ([3]; 4th week): 98.20
- storage stability ([3]; Initial): 98.38

Reference: patent publication US20250051275A1, “PYRROLE DERIVATIVE OR PHARMACEUTICALLY OR SITOLOGICALLY ACCEPTABLE SALTS THEREOF, AND COMPOSITION FOR PREVENTION, AMELIORATION OR TREATMENT OF GASTROINTESTINAL DISORDERS COMPRISING SAME AS ACTIVE INGREDIENT” (HANA PHARM CO., LTD., priority 2021, published 2025)
